# Results published in patent US4251546A, “Process for killing internal helminths using certain 1,1-bis-(2-substituted-3-nitrophenyl)alkane or alkylene derivatives” (ICI Australia Limited, priority 1977, dated 1981).
# Legend:
# immature fluke = assay: Effectiveness against immature fluke (Table 3 footnotes); assay type: in vivo, Fasciola hepatica
# [1] = test system: sheep liver fluke (Fasciola hepatica); assay: Fluke egg count in faeces and adult fluke count in liver of infected sheep after a single s/c dose (Table 3); assay type: in vivo; conditions: for POST MORTEM RESULT No. of adult fluke: liver
# Protocol: Compositions suitable for use as experimental injectable solutions were prepared by formulating the compounds as solutions of their salts either in water or in a mixture of water and ethylene glycol or water and polyethylene glycol (PEG200).
# Compositions prepared by the method of Example 10 were used as a single dose to test sheep infected with sheep liver fluke (Fasciola hepatica). The number of liver fluke eggs in the faeces was measured at the time of treatment and at selected intervals up to 30 days after treatment. The sheep were killed and the number of adult fluke in the liver counted. The amount and structure of the active ingredient in each composition and the results of treatment of a sheep with that composition are given in the Table 3 below. The compositions were administered by sub-cutaneous injection (s/c).
# live Fasciola hepatica = assay: Minimum effective concentration against live Fasciola hepatica in Hedon-Fleig medium (Table 4); conditions: in vitro, assessed 24 hours after treatment, read-out: MINIMUM EFFECTIVE CONCENTRATION (minimum concentration required to kill Fasciola hepatica)
# Protocol: The minimum effective concentration of compounds of formula I against live Fasciola hepatica was tested by the direct application of the test compound, in solution, to live Fasciola hepatica in Hedon-Fleig medium. The results are given in Table 4 where the minimum effective concentration (minimum concentration required to kill Fasciola hepatica) was assessed 24 hours after treatment with the test compound.
compound,measurement,setting,value
O=[N+]([O-])c1cc(Cl)cc(C(=C(Cl)Cl)c2cc(Cl)cc([N+](=O)[O-])c2O)c1O [Compound 14],effective against immature fluke,immature fluke; 10 mg/kg,90.6%
same,effective against immature fluke,immature fluke; 15 mg/kg,100%
same,"FAECAL EGG COUNT, day 7",[1]; single dose 0.5 mg/kg,0 Eggs/g faeces
same,"FAECAL EGG COUNT, day 14",[1]; single dose 0.5 mg/kg,0 Eggs/g faeces
same,POST MORTEM RESULT No. of adult fluke,[1]; single dose 0.5 mg/kg,0
same,"FAECAL EGG COUNT, day 7",[1]; single dose 2.0 mg/kg,60 Eggs/g faeces
same,"FAECAL EGG COUNT, day 14",[1]; single dose 2.0 mg/kg,0 Eggs/g faeces
same,POST MORTEM RESULT No. of adult fluke,[1]; single dose 2.0 mg/kg,0
same,"FAECAL EGG COUNT, day 7",[1]; single dose 12.5 mg/kg,0 Eggs/g faeces
same,"FAECAL EGG COUNT, day 14",[1]; single dose 12.5 mg/kg,0 Eggs/g faeces
same,POST MORTEM RESULT No. of adult fluke,[1]; single dose 12.5 mg/kg,0
O=[N+]([O-])c1cc(Br)cc(C(=C(Cl)Cl)c2cc(Br)cc([N+](=O)[O-])c2O)c1O [Compound 15],effective against immature fluke,immature fluke; 10 mg/kg,91.4%
same,effective against immature fluke,immature fluke; 15 mg/kg,94%
same,"FAECAL EGG COUNT, day 7",[1]; single dose 2.0 mg/kg,0 Eggs/g faeces
same,"FAECAL EGG COUNT, day 14",[1]; single dose 2.0 mg/kg,0 Eggs/g faeces
same,POST MORTEM RESULT No. of adult fluke,[1]; single dose 2.0 mg/kg,0
same,"FAECAL EGG COUNT, day 7",[1]; single dose 12.5 mg/kg,0 Eggs/g faeces
same,"FAECAL EGG COUNT, day 14",[1]; single dose 12.5 mg/kg,0 Eggs/g faeces
same,POST MORTEM RESULT No. of adult fluke,[1]; single dose 12.5 mg/kg,0
"CC(C)(c1cc(F)cc([N+](=O)[O-])c1O)c1cc(F)cc([N+](=O)[O-])c1O [Compound 19, 2,2'-Isopropylidene bis(4-fluoro-6-nitrophenol)]","FAECAL EGG COUNT, day 7",[1]; single dose 12.5 mg/kg,210 Eggs/g faeces
same,"FAECAL EGG COUNT, day 14",[1]; single dose 12.5 mg/kg,180 Eggs/g faeces
"CC(C)(c1cc(F)cc([N+](=O)[O-])c1O)c1cc(Cl)cc([N+](=O)[O-])c1O [Compound 20, 2-(5-chloro-2-hydroxy-3-nitrophenyl)-2-(5-fluoro-2-hydroxy-3-nitrophenyl)propane]","FAECAL EGG COUNT, day 7",[1]; single dose 12.5 mg/kg,400 Eggs/g faeces
same,"FAECAL EGG COUNT, day 14",[1]; single dose 12.5 mg/kg,140 Eggs/g faeces
"CC(C)COC(c1cc(Cl)cc([N+](=O)[O-])c1O)c1cc(Cl)cc([N+](=O)[O-])c1O [Compound 24, bis(5-chloro-2-hydroxy-3-nitrophenyl)methyl isobutyl ether]","FAECAL EGG COUNT, day 7",[1]; single dose 6.0 mg/kg,20 Eggs/g faeces
same,"FAECAL EGG COUNT, day 14",[1]; single dose 6.0 mg/kg,10 Eggs/g faeces
same,POST MORTEM RESULT No. of adult fluke,[1]; single dose 6.0 mg/kg,0
CCOC(c1cc(Cl)cc([N+](=O)[O-])c1O)c1cc(Cl)cc([N+](=O)[O-])c1O [Compound 26],"FAECAL EGG COUNT, day 7",[1]; single dose 6.0 mg/kg,130 Eggs/g faeces
same,"FAECAL EGG COUNT, day 14",[1]; single dose 6.0 mg/kg,10 Eggs/g faeces
same,POST MORTEM RESULT No. of adult fluke,[1]; single dose 6.0 mg/kg,0
CC(C)SC(c1cc(Cl)cc([N+](=O)[O-])c1O)c1cc(Cl)cc([N+](=O)[O-])c1O [Compound 30],"FAECAL EGG COUNT, day 7",[1]; single dose 12.0 mg/kg,10 Eggs/g faeces
same,"FAECAL EGG COUNT, day 14",[1]; single dose 12.0 mg/kg,0 Eggs/g faeces
same,POST MORTEM RESULT No. of adult fluke,[1]; single dose 12.0 mg/kg,1
O=[N+]([O-])c1cc(Cl)cc(C(Oc2ccccc2)c2cc(Cl)cc([N+](=O)[O-])c2O)c1O [Compound 32],minimal effective concentration,live Fasciola hepatica,5 µg/mL
N#Cc1ccc(OC(c2cc(Cl)cc([N+](=O)[O-])c2O)c2cc(Cl)cc([N+](=O)[O-])c2O)cc1 [Compound 33],minimal effective concentration,live Fasciola hepatica,5 µg/mL
O=[N+]([O-])c1cc(Cl)cc(C(Oc2cccc(F)c2)c2cc(Cl)cc([N+](=O)[O-])c2O)c1O [Compound 34],minimal effective concentration,live Fasciola hepatica,5 µg/mL
O=[N+]([O-])c1cc(Cl)cc(C(Oc2ccc(F)cc2)c2cc(Cl)cc([N+](=O)[O-])c2O)c1O [Compound 35],minimal effective concentration,live Fasciola hepatica,5 µg/mL
CC(OC(c1cc(Cl)cc([N+](=O)[O-])c1O)c1cc(Cl)cc([N+](=O)[O-])c1O)c1ccccc1 (centres unmarked) [Compound 36],minimal effective concentration,live Fasciola hepatica,1 µg/mL
O=[N+]([O-])c1cc(Cl)cc(C(OCc2cccc(F)c2)c2cc(Cl)cc([N+](=O)[O-])c2O)c1O [Compound 37],"FAECAL EGG COUNT, day 7",[1]; single dose 6.0 mg/kg,0 Eggs/g faeces
same,"FAECAL EGG COUNT, day 14",[1]; single dose 6.0 mg/kg,0 Eggs/g faeces
same,POST MORTEM RESULT No. of adult fluke,[1]; single dose 6.0 mg/kg,2
O=[N+]([O-])c1cc(Cl)cc(C(OCc2ccc(Cl)cc2)c2cc(Cl)cc([N+](=O)[O-])c2O)c1O [Compound 38],minimal effective concentration,live Fasciola hepatica,1 µg/mL
O=[N+]([O-])c1cccc(COC(c2cc(Cl)cc([N+](=O)[O-])c2O)c2cc(Cl)cc([N+](=O)[O-])c2O)c1 [Compound 39],minimal effective concentration,live Fasciola hepatica,0.5 µg/mL
O=[N+]([O-])c1cc(Cl)cc(C(OCc2ccc(F)cc2)c2cc(Cl)cc([N+](=O)[O-])c2O)c1O [Compound 40],"FAECAL EGG COUNT, day 7",[1]; single dose 2.0 mg/kg,0 Eggs/g faeces
same,"FAECAL EGG COUNT, day 14",[1]; single dose 2.0 mg/kg,130 Eggs/g faeces
same,"FAECAL EGG COUNT, day 7",[1]; single dose 6.0 mg/kg,0 Eggs/g faeces
same,"FAECAL EGG COUNT, day 14",[1]; single dose 6.0 mg/kg,0 Eggs/g faeces
same,POST MORTEM RESULT No. of adult fluke,[1]; single dose 6.0 mg/kg,0
O=[N+]([O-])c1cc(Cl)cc(C(OCc2cc(Cl)cc(Cl)c2)c2cc(Cl)cc([N+](=O)[O-])c2O)c1O [Compound 41],minimal effective concentration,live Fasciola hepatica,10 µg/mL
O=[N+]([O-])c1cc(Cl)cc(C(OCCC(c2ccccc2)c2ccccc2)c2cc(Cl)cc([N+](=O)[O-])c2O)c1O [Compound 42],minimal effective concentration,live Fasciola hepatica,1 µg/mL
COc1cc(Cl)ccc1COC(c1cc(Cl)cc([N+](=O)[O-])c1O)c1cc(Cl)cc([N+](=O)[O-])c1O [Compound 43],minimal effective concentration,live Fasciola hepatica,5 µg/mL
CC(=O)Nc1ccc(OC(c2cc(Cl)cc([N+](=O)[O-])c2O)c2cc(Cl)cc([N+](=O)[O-])c2O)cc1 [Compound 44],minimal effective concentration,live Fasciola hepatica,5 µg/mL
CCCSC(c1cc(Cl)cc([N+](=O)[O-])c1O)c1cc(Cl)cc([N+](=O)[O-])c1O [Compound 45],"FAECAL EGG COUNT, day 7",[1]; single dose 12.0 mg/kg,10 Eggs/g faeces
same,"FAECAL EGG COUNT, day 14",[1]; single dose 12.0 mg/kg,0 Eggs/g faeces
same,POST MORTEM RESULT No. of adult fluke,[1]; single dose 12.0 mg/kg,1
CC(C)(C)SC(c1cc(Cl)cc([N+](=O)[O-])c1O)c1cc(Cl)cc([N+](=O)[O-])c1O [Compound 46],minimal effective concentration,live Fasciola hepatica,0.5 µg/mL
CCC(C)SC(c1cc(Cl)cc([N+](=O)[O-])c1O)c1cc(Cl)cc([N+](=O)[O-])c1O (centres unmarked) [Compound 47],"FAECAL EGG COUNT, day 7",[1]; single dose 12.0 mg/kg,10 Eggs/g faeces
same,"FAECAL EGG COUNT, day 14",[1]; single dose 12.0 mg/kg,30 Eggs/g faeces
COc1ccc(CSC(c2cc(Cl)cc([N+](=O)[O-])c2O)c2cc(Cl)cc([N+](=O)[O-])c2O)cc1 [Compound 48],minimal effective concentration,live Fasciola hepatica,1 µg/mL
O=[N+]([O-])c1cc(Cl)cc(C(SCc2ccc(Cl)cc2)c2cc(Cl)cc([N+](=O)[O-])c2O)c1O [Compound 49],minimal effective concentration,live Fasciola hepatica,1.5 µg/mL
O=[N+]([O-])c1cc(Cl)cc(C(Sc2ccccc2)c2cc(Cl)cc([N+](=O)[O-])c2O)c1O [Compound 50],"FAECAL EGG COUNT, day 7",[1]; single dose 12.0 mg/kg,100 Eggs/g faeces
same,"FAECAL EGG COUNT, day 14",[1]; single dose 12.0 mg/kg,0 Eggs/g faeces
same,POST MORTEM RESULT No. of adult fluke,[1]; single dose 12.0 mg/kg,0
O=[N+]([O-])c1cc(Cl)cc(C(Sc2ccc(Cl)cc2)c2cc(Cl)cc([N+](=O)[O-])c2O)c1O [Compound 51],"FAECAL EGG COUNT, day 7",[1]; single dose 12.0 mg/kg,10 Eggs/g faeces
same,"FAECAL EGG COUNT, day 14",[1]; single dose 12.0 mg/kg,0 Eggs/g faeces
same,POST MORTEM RESULT No. of adult fluke,[1]; single dose 12.0 mg/kg,0
O=[N+]([O-])c1ccc(SC(c2cc(Cl)cc([N+](=O)[O-])c2O)c2cc(Cl)cc([N+](=O)[O-])c2O)cc1 [Compound 52],minimal effective concentration,live Fasciola hepatica,1 µg/mL
"O=[N+]([O-])c1cc(Cl)cc(C(c2cc(Cl)cc([N+](=O)[O-])c2O)C(F)(F)F)c1O [Compound 53, 1,1-Bis(5-chloro-2-hydroxy-3-nitrophenyl)-2,2,2-trifluoroethane]",effective against immature fluke,immature fluke; 15 mg/kg,97%
same,"FAECAL EGG COUNT, day 7",[1]; single dose 3.0 mg/kg,460 Eggs/g faeces
same,"FAECAL EGG COUNT, day 14",[1]; single dose 3.0 mg/kg,0 Eggs/g faeces
same,POST MORTEM RESULT No. of adult fluke,[1]; single dose 3.0 mg/kg,0
same,"FAECAL EGG COUNT, day 7",[1]; single dose 6.0 mg/kg,0 Eggs/g faeces
same,"FAECAL EGG COUNT, day 14",[1]; single dose 6.0 mg/kg,0 Eggs/g faeces
same,POST MORTEM RESULT No. of adult fluke,[1]; single dose 6.0 mg/kg,0
O=[N+]([O-])c1cc(Cl)cc(C(c2cc(Cl)cc([N+](=O)[O-])c2O)C(F)(F)C(F)(F)C(F)(F)F)c1O [Compound 55],"FAECAL EGG COUNT, day 7",[1]; single dose 2.0 mg/kg,20 Eggs/g faeces
same,"FAECAL EGG COUNT, day 14",[1]; single dose 2.0 mg/kg,0 Eggs/g faeces
same,POST MORTEM RESULT No. of adult fluke,[1]; single dose 2.0 mg/kg,1
same,"FAECAL EGG COUNT, day 7",[1]; single dose 6.0 mg/kg,50 Eggs/g faeces
same,"FAECAL EGG COUNT, day 14",[1]; single dose 6.0 mg/kg,20 Eggs/g faeces
same,POST MORTEM RESULT No. of adult fluke,[1]; single dose 6.0 mg/kg,0
O=[N+]([O-])c1cc(Br)cc(C(c2cc(Br)cc([N+](=O)[O-])c2O)C(F)(F)F)c1O [Compound 56],"FAECAL EGG COUNT, day 7",[1]; single dose 6.0 mg/kg,10 Eggs/g faeces
same,"FAECAL EGG COUNT, day 14",[1]; single dose 6.0 mg/kg,0 Eggs/g faeces
same,POST MORTEM RESULT No. of adult fluke,[1]; single dose 6.0 mg/kg,0
same,minimal effective concentration,live Fasciola hepatica,1 µg/mL
